Test results reported in patent publication US20220033397A1, “PHARMACEUTICAL COMPOUNDS AND THEIR USE AS INHIBITORS OF UBIQUITIN SPECIFIC PROTEASE 19 (USP19)” (ALMAC DISCOVERY LIMITED, priority 2018, published 2022).

Each compound was assayed against T1, Full-length USP19 (Homo sapiens, UniProt O94966) (assay: USP19 fluorescence polarisation (FP) homogeneous assay with Ubiquitin-Lys-TAMRA substrate). Conditions: 2.5 nM USP19, 30 min pre-incubation, average of at least two duplicate experiments.
T1 construct: Full-length USP19 was purchased from Boston Biochem (E-576); purchased Boston Biochem E-576
T1 sequence (O94966 1-1318): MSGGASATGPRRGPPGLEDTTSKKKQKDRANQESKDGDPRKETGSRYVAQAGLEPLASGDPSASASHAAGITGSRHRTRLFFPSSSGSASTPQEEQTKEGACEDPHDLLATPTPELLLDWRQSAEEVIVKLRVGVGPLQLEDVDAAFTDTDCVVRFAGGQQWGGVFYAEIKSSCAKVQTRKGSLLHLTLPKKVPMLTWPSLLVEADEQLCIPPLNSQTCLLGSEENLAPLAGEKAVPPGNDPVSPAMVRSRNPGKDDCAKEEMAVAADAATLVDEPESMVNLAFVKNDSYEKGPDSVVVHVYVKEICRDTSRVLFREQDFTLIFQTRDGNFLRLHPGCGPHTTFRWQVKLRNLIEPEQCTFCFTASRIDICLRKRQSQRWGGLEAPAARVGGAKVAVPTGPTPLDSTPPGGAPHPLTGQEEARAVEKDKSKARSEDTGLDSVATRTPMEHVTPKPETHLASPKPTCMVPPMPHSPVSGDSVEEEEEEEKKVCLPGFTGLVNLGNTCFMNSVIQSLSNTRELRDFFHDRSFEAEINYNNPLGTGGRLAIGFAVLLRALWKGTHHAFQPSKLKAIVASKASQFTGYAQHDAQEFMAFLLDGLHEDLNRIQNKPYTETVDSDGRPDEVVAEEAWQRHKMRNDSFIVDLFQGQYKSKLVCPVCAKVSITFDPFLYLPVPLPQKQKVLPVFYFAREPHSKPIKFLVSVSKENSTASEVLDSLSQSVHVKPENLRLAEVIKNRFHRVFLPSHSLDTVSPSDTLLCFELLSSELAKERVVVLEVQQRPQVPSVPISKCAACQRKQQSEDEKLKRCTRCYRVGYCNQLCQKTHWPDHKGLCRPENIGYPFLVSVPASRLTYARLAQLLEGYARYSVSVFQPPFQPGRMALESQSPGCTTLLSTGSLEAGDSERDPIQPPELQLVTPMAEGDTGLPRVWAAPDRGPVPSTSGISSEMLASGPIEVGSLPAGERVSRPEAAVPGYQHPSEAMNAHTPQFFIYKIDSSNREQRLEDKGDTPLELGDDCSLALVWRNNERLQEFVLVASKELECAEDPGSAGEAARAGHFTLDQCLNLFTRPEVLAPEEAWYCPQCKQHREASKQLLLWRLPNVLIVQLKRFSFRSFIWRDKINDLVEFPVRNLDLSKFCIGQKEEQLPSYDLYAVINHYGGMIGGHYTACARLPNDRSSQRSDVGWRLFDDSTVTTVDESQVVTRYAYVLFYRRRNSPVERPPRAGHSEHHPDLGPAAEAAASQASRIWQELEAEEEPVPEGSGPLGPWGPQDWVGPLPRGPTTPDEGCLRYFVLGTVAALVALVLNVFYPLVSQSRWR
Assay type: biochemical
Procedure, shortened: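 Full-length USP19 preincubated 30 min at RT with inhibitor (200 μM to 2 μM series, 8–18 points) before adding 500 nM Ubiquitin-Lys-TAMRA substrate.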

Structure (SMILES) | IC50 [nM]
C[C@H](CC(F)(F)F)C(=O)N1CCC(O)(CN2Cc3cnccc3C2=O)C2(CCCC2)C1 (stereo partly drawn) [Example 106, 2-((10-Hydroxy-7-((R)-4,4,4-trifluoro-2-methylbutanoyl)-7-azaspiro[4.5]decan-10-yl)methyl)-2,3-dihydro-1H-pyrrolo[3,4-c]pyridin-1-one] | 50000 to 250000
O=C(N1CC[C@@](O)(Cn2cnc(-c3ccccc3)cc2=O)C2(CCCC2)C1)N1CCOC[C@H]1c1ccccc1 [Example 211, 3-(((S)-10-Hydroxy-7-((R)-3-phenylmorpholine-4-carbonyl)-7-azaspiro[4.5]decan-10-yl)methyl)-6-phenylpyrimidin-4(3H)-one] | < 500
CC1(C)CN(C(=O)NCc2ccccc2)CCC1(O)Cn1cnc(-c2ccccc2F)cc1=O (centres unmarked) [Example 195, N-Benzyl-4-((4-(2-fluorophenyl)-6-oxopyrimidin-1(6H)-yl)methyl)-4-hydroxy-3,3-dimethylpiperidine-1-carboxamide] | 5000 to 50000
C[C@H](CC1CCCCC1)C(=O)N1CCC(O)(Cn2ccc3ccc(F)cc3c2=O)C2(CCCC2)C1 (stereo partly drawn) [Example 121, 2-((7-((R)-3-Cyclohexyl-2-methylpropanoyl)-10-hydroxy-7-azaspiro[4.5]decan-10-yl)methyl)-7-fluoroisoquinolin-1(2H)-one] | 500 to 5000
COc1ccccc1-c1cc(=O)n(C[C@]2(O)CCN(C(=O)N3CCNC[C@H]3c3cccc(F)c3)CC23CCCC3)cn1 [Example 356, 3-(((S)-7-((R)-2-(3-Fluorophenyl)pipera-zine-1-carbonyl)-10-hydroxy-7-azaspiro[4.5]decan-10-yl)methyl)-6-(2-methoxyphenyl)pyri-midin-4(3H)-one] | < 500
C[C@H](CC1CCCCC1)C(=O)N1CCC(O)(Cn2cc([S+](C)[O-])c(Cl)cc2=O)C2(CCCC2)C1 (stereo partly drawn) [Example 70, 4-Chloro-1-((7-((R)-3-cyclohexyl-2-methylpropanoyl)-10-hydroxy-7-azaspiro[4.5]decan-10-yl)methyl)-5-(methylsulfinyl)pyridin-2(1H)-one] | < 500
C[C@H](CC(F)(F)F)C(=O)N1CCC(O)(CN2C(=O)COCC23CC3)C2(CCCC2)C1 (stereo partly drawn) [Example 96, 4-((10-Hydroxy-7-((R)-4,4,4-trifluoro-2-methylbutanoyl)-7-azaspiro[4.5]decan-10-yl)methyl)-7-oxa-4-azaspiro[2.5]octan-5-one] | 50000 to 250000
CSc1ncc2c(=O)n(CC3(O)CCN(C(=O)[C@H](C)CC(F)(F)F)CC34CCCC4)ccc2n1 (stereo partly drawn) [Example 56, 6-((10-Hydroxy-7-((R)-4,4,4-trifluoro-2-methylbutanoyl)-7-azaspiro[4.5]decan-10-yl)methyl)-2-(methylthio)pyrido[4,3-d]pyrimidin-5(6H)-one] | < 500
O=C(N1CC[C@@](O)(Cn2cnc(N3CCCC(F)(F)C3)cc2=O)C2(CCCC2)C1)N1CCNC[C@H]1c1ccccc1 [Example 363, 6-(3,3-Difluoro-piperidin-1-yl)-3-(((S)-10-hydroxy-7-((R)-2-phenylpiperazine-1-carbonyl)-7-azaspiro[4.5]decan-10-yl)methyl)pyrimi-din-4(3H)-one] | < 500
C[C@H](CC(F)(F)F)C(=O)N1CCC(O)(Cn2cnc3c(cnn3-c3ccccc3)c2=O)C2(CCCC2)C1 (stereo partly drawn) [Example 177, 5-((10-Hydroxy-7-((R)-4,4,4-trifluoro-2-methylbutanoyl)-7-azaspiro[4.5]decan-10-yl)methyl)-1-phenyl-1,5-dihydro-4H-pyrazolo[3,4-d]pyrimidin-4-one] | 5000 to 50000
O=C(N1CCC(O)(Cn2cnc3cc(F)c(F)cc3c2=O)C2(CCCC2)C1)N1CCOC[C@H]1c1ccccc1 (stereo partly drawn) [Example 165, 6,7-Difluoro-3-((10-hydroxy-7-((R)-3-phenylmorpholine-4-carbonyl)-7-azaspiro[4.5]decan-10-yl)methyl)quinazolin-4(3H)-one] | < 500
O=C(N1CC[C@@](O)(Cn2cnc(-c3ccccc3)cc2=O)C2(CCCC2)C1)N1CCS(=O)(=O)C[C@H]1c1cc(F)ccc1F [Example 394, 3-(((S)-7-((R)-3-(2,5-Difluoro-phenyl)-1,1-dioxidothio-morpholine-4-carbonyl)-10-hydroxy-7-aza-spiro[4.5]decan-10-yl)methyl)-6-phenylpyrimidin-4(3H)-one] | < 500
C[C@H](CC1CCCCC1)C(=O)N1CCC(O)(Cn2cc(-c3ccccc3)ncc2=O)C(C)(C)C1 (stereo partly drawn) [Example 2, 1-((1-((R)-3-Cyclohexyl-2-methylpropanoyl)-4-hydroxy-3,3-dimethylpiperidin-4-yl)methyl)-5-phenylpyrazin-2(1H)-one] | 500 to 5000
COC(=O)c1cn(CC2(O)CCN(C(=O)[C@H](C)CC3CCCCC3)CC23CCCC3)c(=O)cn1 (stereo partly drawn) [Example 8, Methyl 4-((7-((R)-3-cyclohexyl-2-methylpropanoyl)-10-hydroxy-7-azaspiro[4.5]decan-10-yl)methyl)-5-oxo-4,5-dihydropyrazine-2-carboxylate] | < 500
O=C(N1CC[C@@](O)(Cn2cnc(N3CCCC3)cc2=O)C2(CCCC2)C1)N1CCOC[C@H]1c1ccccc1 [Example 223, 3-(((S)-10-Hydroxy-7-((R)-3-phenylmorpholine-4-carbonyl)-7-azaspiro[4.5]decan-10-yl)methyl)-6-(pyrrolidin-1-yl)pyrimidin-4(3H)-one] | < 500
C[C@H](CC1CCCCC1)C(=O)N1CCC(O)(CN2CCN(c3ccccc3)CC2=O)C2(CCCC2)C1 (stereo partly drawn) [Example 50, 1-((7-((R)-3-Cyclohexyl-2-methylpropanoyl)-10-hydroxy-7-azaspiro[4.5]decan-10-yl)methyl)-4-phenylpiperazin-2-one] | < 500
O=C(N1CCC(O)(Cn2cnc(-c3ccccc3)cc2=O)CC1)N1CCNC[C@H]1c1ccccc1 [Example 297, (R)-3-((4-Hydroxy-1-(2-phenylpiperazine-1-carbonyl)piperidin-4-yl)methyl)-6-phenylpyrimidin-4(3H)-one] | < 500
O=C(N1CC[C@@](O)(Cn2ccc(Cl)cc2=O)C2(CCCC2)C1)N1CCNC[C@H]1c1ccccc1 [Example 326, 4-Chloro-1-(((S)-10-hydroxy-7-((R)-2-phenylpiperazine-1-carbonyl)-7-azaspiro[4.5]decan-10-yl)methyl)pyridin-2(1H)-one] | < 500
CSc1ncc2c(=O)n(C[C@]3(O)CCN(C(=O)N4CCNC[C@H]4c4ccccc4)CC34CCCC4)ccc2n1 [Example 184, 6-(((S)-10-Hydroxy-7-((R)-2-phenylpiperazine-1-carbonyl)-7-azaspiro[4.5]decan-10-yl)methyl)-2-(methylthio)pyrido[4,3-d]pyrimidin-5(6H)-one] | < 500
O=C(N1CCC(O)(Cn2cnc(-c3ccccc3)cc2=O)C2(CCCC2)C1)N1CCOCC1c1cccs1 (centres unmarked) [Example 235, 3-((10-Hydroxy-7-(3-(thiophen-2-yl)morpholine-4-carbonyl)-7-azaspiro[4.5]decan-10-yl)methyl)-6-phenylpyrimidin-4(3H)-one] | < 500
N#Cc1cccc(CNC(=O)N2CCC(O)(Cn3cnc(-c4ccccc4)cc3=O)C3(CCCC3)C2)c1 (centres unmarked) [Example 257, N-(3-Cyanobenzyl)-10-hydroxy-10-((6-oxo-4-phenylpyrimidin-1(6H)-yl)methyl)-7-azaspiro[4.5]decane-7-carboxamide] | 5000 to 50000
CN(C)C(=O)c1cn(C[C@]2(O)CCN(C(=O)N3CCOC[C@H]3c3ccccc3)CC2(C)C)c(=O)cc1-c1ccccc1 [Example 283, 1-(((S)-4-Hydroxy-3,3-dimethyl-1-((R)-3-phenylmorpholine-4-carbonyl)piperidin-4-yl)methyl)-N,N-dimethyl-6-oxo-4-phenyl-1,6-dihydropyridine-3-carboxamide] | < 500
C[C@H](CC1CCCCC1)C(=O)N1CCC(O)(Cn2cnc3sccc3c2=O)C2(CCCC2)C1 (stereo partly drawn) [Example 132, 3-((7-((R)-3-Cyclohexyl-2-methylpropanoyl)-10-hydroxy-7-azaspiro[4.5]decan-10-yl)methyl)thieno[2,3-d]pyrimidin-4(3H)-one] | 500 to 5000
